# According to PubChem BioAssay AID328 (DTP/NCI, 2004):
# Where “and” joins values, the source holds several entries; their conditions need not be identical. Identical values can stand only once. Toxic doses and inconclusive results are not listed.
# Tested on: BDF1 mice, P388 leukemia ip, median survival T/C
# Assay: NCI In Vivo Anticancer Drug Screen. Data for tumor model P388 Leukemia (intraperitoneal) in B6D2F1 (BDF1) mice
# Conditions: endpoint: median survival time, higher = longer survival
# Outline: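 Vehicle-dosed animals serve as the reference; survival of compound-dosed, tumour-implanted mice is divided by it.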
# [1] = dose: 200.0 mg/kg/injection, schedule: Q01DX009 (ip), vehicle: saline with Tween-80
# [2] = dose: 400.0 mg/kg/injection, schedule: Q01DX009 (ip), vehicle: saline with Tween-80
# [3] = dose: 25.0 mg/kg/injection, schedule: Q01DX009 (ip), vehicle: saline with Tween-80
# [4] = dose: 50.0 mg/kg/injection, schedule: Q01DX009 (ip), vehicle: water
# [5] = dose: 50.0 mg/kg/injection, schedule: Q04DX003 (ip), vehicle: water
# [6] = dose: 100.0 mg/kg/injection, schedule: Q01DX009 (ip), vehicle: water
# [7] = dose: 50.0 mg/kg/injection, schedule: Q04DX003 (ip), vehicle: saline
# [8] = dose: 100.0 mg/kg/injection, schedule: Q04DX003 (ip), vehicle: saline
# [9] = dose: 50.0 mg/kg/injection, schedule: Q01DX009 (ip), vehicle: Klucel (hydroxypropylcellulose) (HPC)
# [10] = dose: 100.0 mg/kg/injection, schedule: Q04DX003 (ip), vehicle: Klucel (hydroxypropylcellulose) (HPC)
# [11] = dose: 200.0 mg/kg/injection, schedule: Q01DX009 (ip), vehicle: Klucel (hydroxypropylcellulose) (HPC)
# [12] = dose: 200.0 mg/kg/injection, schedule: Q04DX003 (ip), vehicle: Klucel (hydroxypropylcellulose) (HPC)
# [13] = dose: 400.0 mg/kg/injection, schedule: Q04DX003 (ip), vehicle: Klucel (hydroxypropylcellulose) (HPC)
# [14] = dose: 12.5 mg/kg/injection, schedule: Q01DX009 (ip), vehicle: Klucel (hydroxypropylcellulose) (HPC)
# [15] = dose: 25.0 mg/kg/injection, schedule: Q01DX009 (ip), vehicle: Klucel (hydroxypropylcellulose) (HPC)
# [16] = dose: 6.25 mg/kg/injection, schedule: Q04DX003 (ip), vehicle: saline with Tween-80
# [17] = dose: 12.5 mg/kg/injection, schedule: Q04DX003 (ip), vehicle: saline with Tween-80
# [18] = dose: 25.0 mg/kg/injection, schedule: Q04DX003 (ip), vehicle: saline with Tween-80
smiles,measurement,setting,value
CC1(C)C2=CCCC3(OCCO3)C2(C)CCC1O (stereo unspecified),T/C,"dose: 100.0 mg/kg/injection, schedule: Q01DX009 (ip), vehicle: saline with Tween-80",100 % of control
same,T/C,[1],100 % of control
same,T/C,[2],90 % of control
CC(C)=CCC/C(C)=C\C=N\NS(=O)(=O)c1ccc([N+](=O)[O-])cc1,T/C,"dose: 6.25 mg/kg/injection, schedule: Q01DX009 (ip), vehicle: saline with Tween-80",99 % of control
same,T/C,"dose: 12.5 mg/kg/injection, schedule: Q01DX009 (ip), vehicle: saline with Tween-80",103 % of control
same,T/C,[3],103 % of control
CC(C)CC(CC(C)C)NCC(C)OC(=O)c1ccc([N+](=O)[O-])cc1 (stereo unspecified),T/C,[4],106 % of control
same,T/C,[5],100 % of control
same,T/C,[6],92 % of control
same,T/C,"dose: 100.0 mg/kg/injection, schedule: Q04DX003 (ip), vehicle: water",103 % of control
same,T/C,"dose: 200.0 mg/kg/injection, schedule: Q01DX009 (ip), vehicle: water",103 % of control
same,T/C,"dose: 200.0 mg/kg/injection, schedule: Q04DX003 (ip), vehicle: water",94 % of control
same,T/C,"dose: 400.0 mg/kg/injection, schedule: Q04DX003 (ip), vehicle: water",88 % of control
NCCc1ccc(O)c(O)c1,T/C,"dose: 37.5 mg/kg/injection, schedule: Q01DX009 (ip), vehicle: saline",101 % of control and 120 % of control
same,T/C,"dose: 75.0 mg/kg/injection, schedule: Q01DX009 (ip), vehicle: saline",114 % of control
same,T/C,"dose: 150.0 mg/kg/injection, schedule: Q01DX009 (ip), vehicle: saline",111 % of control
same,T/C,"dose: 300.0 mg/kg/injection, schedule: Q01DX009 (ip), vehicle: saline",158 % of control
CC(C)Cn1c(Cl)c(/C=N\Nc2ccccc2[N+](=O)[O-])c2ccccc21,T/C,"dose: 100.0 mg/kg/injection, schedule: Q04DX002 (ip), vehicle: Klucel (hydroxypropylcellulose) (HPC)",92 % of control
same,T/C,"dose: 200.0 mg/kg/injection, schedule: Q04DX002 (ip), vehicle: Klucel (hydroxypropylcellulose) (HPC)",99 % of control
C[S+](C)CC(=O)c1ccccc1,T/C,"dose: 50.0 mg/kg/injection, schedule: Q01DX001 (ip), vehicle: saline",116 % of control
same,T/C,[7],91 % of control
same,T/C,"dose: 100.0 mg/kg/injection, schedule: Q01DX001 (ip), vehicle: saline",116 % of control
same,T/C,[8],95 % of control
same,T/C,"dose: 200.0 mg/kg/injection, schedule: Q01DX001 (ip), vehicle: saline",112 % of control
same,T/C,"dose: 200.0 mg/kg/injection, schedule: Q04DX003 (ip), vehicle: saline",95 % of control
C[C@H]1C[C@@H]2[C@H]([C@@H](O)C[C@@]3(C)[C@H]2CC[C@]3(O)C(=O)CO)[C@@]2(C)C=CC(=O)C=C12,T/C,[1],104 % of control
same,T/C,[2],90 % of control
CCN(CC)P(=O)(N1CC1C)N1CC1C (stereo unspecified),T/C,"dose: 4.4 mg/kg/injection, schedule: Q01DX009 (ip), vehicle: saline",109 % of control
same,T/C,"dose: 6.6 mg/kg/injection, schedule: Q01DX009 (ip), vehicle: saline",109 % of control
same,T/C,"dose: 10.0 mg/kg/injection, schedule: Q01DX009 (ip), vehicle: saline",104 % of control
same,T/C,"dose: 12.5 mg/kg/injection, schedule: Q04DX003 (ip), vehicle: saline",116 % of control
same,T/C,"dose: 13.2 mg/kg/injection, schedule: Q01DX009 (ip), vehicle: saline",118 % of control
same,T/C,"dose: 15.0 mg/kg/injection, schedule: Q01DX009 (ip), vehicle: saline",113 % of control
same,T/C,"dose: 20.0 mg/kg/injection, schedule: Q01DX009 (ip), vehicle: saline",157 % of control and 180 % of control
same,T/C,"dose: 25.0 mg/kg/injection, schedule: Q04DX003 (ip), vehicle: saline",100 % of control
same,T/C,"dose: 30.0 mg/kg/injection, schedule: Q01DX009 (ip), vehicle: saline",150 % of control
same,T/C,"dose: 33.0 mg/kg/injection, schedule: Q04DX003 (ip), vehicle: saline",121 % of control
same,T/C,"dose: 45.0 mg/kg/injection, schedule: Q01DX009 (ip), vehicle: saline",90 % of control
same,T/C,[7],113 % of control
same,T/C,"dose: 75.0 mg/kg/injection, schedule: Q04DX003 (ip), vehicle: saline",169 % of control
Cc1ccc(/C=C2/C=C(c3ccccc3)OC2=O)cc1,T/C,[9],109 % of control
same,T/C,"dose: 100.0 mg/kg/injection, schedule: Q01DX009 (ip), vehicle: Klucel (hydroxypropylcellulose) (HPC)",109 % of control
same,T/C,[10],100 % of control
same,T/C,[11],100 % of control
same,T/C,[12],95 % of control
same,T/C,[13],90 % of control
O=C1C=CC(=O)c2c(O)c(CBr)c(CBr)c(O)c21,T/C,"dose: 3.12 mg/kg/injection, schedule: Q01DX009 (ip), vehicle: water",96 % of control
same,T/C,"dose: 6.25 mg/kg/injection, schedule: Q01DX009 (ip), vehicle: water",118 % of control
same,T/C,"dose: 6.25 mg/kg/injection, schedule: Q04DX003 (ip), vehicle: water",105 % of control
same,T/C,"dose: 12.5 mg/kg/injection, schedule: Q01DX009 (ip), vehicle: water",108 % of control
same,T/C,"dose: 12.5 mg/kg/injection, schedule: Q04DX003 (ip), vehicle: water",105 % of control
same,T/C,"dose: 25.0 mg/kg/injection, schedule: Q01DX009 (ip), vehicle: water",118 % of control
same,T/C,"dose: 25.0 mg/kg/injection, schedule: Q04DX003 (ip), vehicle: water",100 % of control
same,T/C,[4],112 % of control
same,T/C,[5],107 % of control
same,T/C,[6],105 % of control
N=C(N)SCc1ccc(C(=O)Oc2ccc([N+](=O)[O-])cc2)cc1,T/C,"dose: 25.0 mg/kg/injection, schedule: Q01DX009 (ip), vehicle: saline",104 % of control
same,T/C,"dose: 50.0 mg/kg/injection, schedule: Q01DX009 (ip), vehicle: saline",90 % of control
same,T/C,[7],110 % of control
same,T/C,[8],110 % of control
CC1(C)C2CC=C(C[P+](c3ccccc3)(c3ccccc3)c3ccccc3)C1C2 (stereo unspecified),T/C,"dose: 3.3 mg/kg/injection, schedule: Q01DX009 (ip), vehicle: saline sonified",120 % of control
Cc1ccc(S(=O)(=O)NCN2C(=O)c3ccccc3C2=O)cc1,T/C,[14],100 % of control
same,T/C,[15],100 % of control
same,T/C,[3],86 % of control
same,T/C,[9],105 % of control
same,T/C,"dose: 100.0 mg/kg/injection, schedule: Q01DX009 (ip), vehicle: saline",91 % of control
C[n+]1ccc2cc(N)c3c4ccccc4sc3c2c1,T/C,"dose: 3.12 mg/kg/injection, schedule: Q01DX009 (ip), vehicle: saline with Tween-80",110 % of control and 119 % of control
same,T/C,"dose: 3.13 mg/kg/injection, schedule: Q01DX009 (ip), vehicle: Klucel (hydroxypropylcellulose) (HPC)",116 % of control
same,T/C,"dose: 6.25 mg/kg/injection, schedule: Q01DX009 (ip), vehicle: Klucel (hydroxypropylcellulose) (HPC)",123 % of control
same,T/C,[16],105 % of control
same,T/C,[14],156 % of control
same,T/C,[17],112 % of control
same,T/C,[15],170 % of control and 184 % of control
same,T/C,[3],172 % of control
same,T/C,[18],112 % of control
CCCCCCCCCCCCCCCCn1/c(=N/N=C/c2ccccc2S(=O)(=O)O)sc2ccccc21,T/C,[10],104 % of control
same,T/C,[11],95 % of control
same,T/C,[12],118 % of control
same,T/C,"dose: 400.0 mg/kg/injection, schedule: Q01DX009 (ip), vehicle: Klucel (hydroxypropylcellulose) (HPC)",95 % of control
same,T/C,[13],95 % of control
COc1ccccc1NC(=O)Oc1ccc(-c2ccccc2)cc1Br,T/C,[10],95 % of control
same,T/C,[12],87 % of control
same,T/C,[13],91 % of control
CCC1=CCN2CCC34c5cc(C6(C(=O)OC)CC7CC(CC)CN(CCc8c6[nH]c6ccccc86)C7)c(OC)cc5N(C)C3C(O)(C(=O)OC)C(OC(C)=O)C1C24 (stereo unspecified),T/C,"dose: 0.03 mg/kg/injection, schedule: Q01DX010 (ip), vehicle: saline",100 % of control
same,T/C,"dose: 0.06 mg/kg/injection, schedule: Q01DX010 (ip), vehicle: saline",104 % of control
same,T/C,"dose: 0.13 mg/kg/injection, schedule: Q01DX010 (ip), vehicle: saline",95 % of control
same,T/C,"dose: 0.25 mg/kg/injection, schedule: Q01DX010 (ip), vehicle: saline",100 % of control
same,T/C,"dose: 0.5 mg/kg/injection, schedule: Q01DX010 (ip), vehicle: saline",86 % of control
C/C(=N\NC(=S)N1CCC(O)CC1)c1ccccn1,T/C,[16],104 % of control
same,T/C,[17],108 % of control
same,T/C,[18],113 % of control
